Bridges are numbered along the chain shown (N, C = ends). Where no end group is shown, it is not given here.
What was measured:
[1] = test system: IFN signaling pathway; assay: IFN signaling pathway in Jurkat-Dual reporter cells, SEAP production; type: cell-based; settings: after 12, 24 and 48 hours; results depend on concentration
Procedure: (§1) In order to investigate the ability of synthetic peptides with affinity to the Interleukin-10 receptor to interfere in the NFkB, IFN and TLR4 pathways, reporter cell lines were used. To analyze whether the isolated peptides (without activation molecules) could induce any type of activation, the isolated peptides were tested in cell lines during 12, 24 and 48 hours of treatment. […] As an example, FIG. 13A, FIG. 13B, and FIG. 13C show an analysis of NFkB expression after stimulation with the synthesized IL-10 receptor affinity synthetic peptides described herein. Cells were treated for 12, 24 and 48 hours with the synthesized peptides Pep 1-IL10, Pep 2-IL10, Pep 3-IL10 and Pep 4-IL10, at different concentrations, without activating molecules. Luciferase was then measured after 12 hours of treatment (FIG. 13A), 24 hours of treatment (FIG. 13B) and 48 hours of treatment (FIG. 13C). […] TNF-α (200 ng/mL) was used as a positive control.
The most significant results will be described below. […] When cells were pretreated with IFN, although peptides at some concentrations indicated results, they were not statistically sufficient. Therefore, we cannot confirm whether they were able to interfere with pathway activation (FIGS. 17 A, B and C) in an equal or better way than the negative control (rIL-10). In the assays shown by FIGS. 16 (A, B and C) and FIGS. 17 (A, B and C), analysis of IFN expression was performed in Jurkat-Dual reporter cells. In the assays shown by FIGS. 16 A, B and C, cells were treated for 1 hour with peptides with further addition of IFN-α (104 EU/ml). Secreted Embryonic Alkaline Phosphatase (SEAP) production was measured after 12 hours of treatment (FIG. 16A), 24 hours of treatment (FIG. 16 B) and 48 hours of treatment (FIG. 16 C). In the assays shown by FIGS. 17A, B and C, cells were treated for 1 hour with IFN-α (104 EU/ml) with further addition of the peptides. SEAP production was measured after (A) 12 hours of treatment (B), 24 hours of treatment and (C) 48 hours of treatment. IFN-α (104 EU/ml) was used as a positive control and rlL-10 (0.4 ng/ml) as a negative control. *P<0.05.

[2] = test system: NFkB pathway; assay: NFkB expression in Jurkat-Dual reporter cells, luciferase (IL-10 mimetic peptides); type: cell-based; settings: without activating molecules; 12, 24 and 48 hours; different concentrations
Procedure: as §1
The assay was then carried out using TNF-α as activation molecule not only in the control, but after a pretreatment with the synthesized peptides Pep 1-IL10, Pep 2-IL10, Pep 3-IL10 and Pep 4-IL10, at different concentrations. All peptides were able to modulate NFKB activation after 12, 24 and 48 hours, with different results depending on the concentrations used. […] In the assays shown by FIGS. 14 A, B and C, analysis of NFkB expression was performed in Jurkat-Dual reporter cells. Cells were treated for 1 hour with peptides and TNF-α (200 ng/ml) added. Luciferase was measured after 12 hours of treatment (FIG. 14A), 24 hours of treatment (FIG. 14B) and 48 hours of treatment (FIG. 14C).
Another assay was then performed in which cells were pretreated with TNF-α and the synthesized peptides Pep 1-IL10, Pep 2-IL10, Pep 3-IL10 and Pep 4-IL10, at different concentrations, were added later. All peptides were able to modulate NFKB activation after 12, 24 and 48 hours, with different results depending on the concentrations used. The most significant results will be described below. […] After 48 hours of treatment, Pep 1-IL-10 at a concentration of 0.001 μM (P<0.05) was the one that obtained a result with the highest statistical significance in the decrease of NFKB signaling (FIG. 15C). In the assays shown by FIGS. 15 A, B and C, analysis of NFkB expression was performed in Jurkat-Dual reporter cells. Cells were treated for 1 hour with TNF-α (200 ng/ml) and peptides were added. Luciferase was measured after 12 hours of treatment (FIG. 15A), 24 hours of treatment (FIG. 15B) and 48 hours of treatment (FIG. 15C). TNF-α (200 ng/mL) was used as a positive control and rlL-10 (recombinant Interleukin-10) (0.4 ng/mL) as a negative control. *P<0.05; **P<0.005; ***P<0.0005.

[3] = test system: TLR4 signaling pathway; assay: TLR4 signaling pathway in HEK cells, SEAP production (IL-10 mimetic peptides); type: cell-based; settings: cells pretreated with LPS 100 ng/ml, peptides added; 12 hours
Procedure: as §1
HEK cells were used to investigate the ability of the synthesized peptides Pep 1-IL10, Pep 2-IL10, Pep 3-IL10 and Pep 4-IL10 to modulate the activation of the TLR4 signaling pathway after 12 hours of treatment. […]
In the assay shown by FIG. 14A cells were treated 1 hour with peptides and LPS (100 ng/ml) was added. SEAP production was measured after 12 hours of treatment. […] SEAP production was measured after 12 hours of treatment. […]

[4] = test system: mice sensitized by Phl p5; assay: murine sensitization model with recombinant Phl p5: antibody response; type: in vivo
Source text: We then tested the ability of the synthesized TGF-β1 mimetic peptides to modulate the in vivo immune response during allergic sensitization to Phl p 5. We selected as an example Pep 2-TGF-β1 to show the results. […] Therefore, Pep 2-TGF-β1 modulated Phl p5-specific antibody responses in mice.

[5] = test system: splenocytes of mice sensitized with Phl p 5; assay: Luminex Multiplex cytokine analysis of supernatants from restimulated splenocytes; type: in vivo
Procedure: (§2) To determine the number of splenic cells producing IFN-g, IL-4 and IL-10 in all groups of mice, an ELISPOT assay was performed. […] To investigate the cytokine profile in supernatants from restimulated splenocytes, a Luminex Multiplex cytokine analysis kit was used. […] Furthermore, an increase in IL-10 levels was observed.

[6] = test system: TGF-β1 receptor on A549 cells; assay: ELISA on cells of the A549 line using anti-TGF-β1 antibody; type: binding, human
Procedure: The peptides described in this patent application were selected using the Phage Display (PD) methodology. The selection was performed by evaluating the ability of said peptides to recognize the TGF-β1 receptor on A549 cells, using an ELISA assay. MaxiSorp 96-well microtiter plates were coated with 1×10^6 cells diluted in PBS and incubated overnight at 4° C. Cells were blocked with 3% PBS-BSA for 1 h at 37° C., washed once with PBS and incubated with […] of each TGF-β1 mimetic peptide or 5 ng/ml of recombinant TGF-β1 for 1 h at 37° C. After washing, the plate was incubated for 1 h at 37° C. with anti-TGF-β1 antibody. The plate was washed and incubated with HRP-labeled anti-human IgG antibody for 1 h at 37° C. After washing, TMB substrate solution was added to the plate; the reaction was stopped by adding the 2N H2SO4 solution and read at 492 nm in a microplate reader.
To investigate whether the synthesized peptides could bind to cell receptors, an ELISA assay was performed on cells of the A549 line using commercial anti-TGF-β1 antibody.

[7] = test system: TH2 polarization in skin-draining inguinal lymph node cells; assay: TH2 polarization in IL-4 reporter (4get) mice, GFP+CD4+ lymphocytes by flow cytometry; type: in vivo; settings: 5 days after immunization, administered with grass pollen extract
Source text: TH2 lymphocytes produce cytokines such as IL-4, IL-5 and IL-13 and lead to the class shift of immunoglobulin production from B cells to IgE, which triggers the allergic reaction. To investigate whether synthesized peptides mimetic to TGF-β1 can modulate TH2 polarization in the presence of grass pollen extract or rPhl p 5, we used an IL-4 reporter mouse. 4get mice express GFP as part of a bicistronic IL-4-IRES-GFP mRNA, allowing the identification of cells expressing IL-4 in situ during an allergen-induced TH2 response. In this experiment, we use skin-draining inguinal lymph node cells to monitor the TH2 response. […] In summary, in this IL-4 mice model, Pep 2 administered in combination with grass pollen extract was able to inhibit TH2 polarization in skin-draining inguinal lymph node cells.

[8] = test system: splenocytes of mice sensitized with Phl p 5; assay: ELISPOT of splenocytes stimulated with Phl p5; type: in vivo
Procedure: as §2

[9] = test system: Treg cells; assay: flow cytometry of CD4+CD25+Foxp3+ cells in splenocytes from BALB/c mice; type: in vivo
Source text: To investigate the influence of synthesized peptides mimetic to TGF-β1 on Treg induction specific to Phl p5 during allergic sensitization, we analyzed splenocytes from BALB/c mice using flow cytometry. We sought to investigate CD4+CD25+Foxp3+cells expressing GATA3, CTLA4 or KI67, as these factors are necessary for the survival and function of Treg cells. […] The percentage of CD4+CD25+Foxp3+T cells expressing the CTLA4 factor in mice without sensitization and sensitized with Phl p 5 was 5.62% and 9.46%, respectively, while in mice treated with Pep 2-TGF-β1 this value was 12.5% (FIG. 10C-D).

[10] = test system: Jurkat cells; assay: cytokine secretion in MMA-stimulated Jurkat cells; type: cell-based, human
[11] = test system: IL-8 gene expression; assay: luciferase reporter under control of the IL-8 promoter in TNF-α stimulated A549 cells; type: cell-based, human
Source text: First, we tested the ability of the synthesized peptides to recognize TGF^RII on the surface of Jurkat cells, immortalized human T lymphocytes, using ELISA. The recombinant TGFβ (rTGFβ1) was used as a positive control. […] To investigate IL-8 cytokine production, we used an immortalized human lung epithelial cell line (A549), which plays an important role in the first defense line to foreign compounds. […] A mediator release assay, based on rat basophilic leukemia (RBL) cells bearing humanized FIERI receptor, was performed to investigate the effect of the synthesized peptides on IgE-mediated degranulation of basophils in an already sensitized system. This sensitive cell-based assay may help to understand the action of the mimetic peptide in an established allergic microenvironment.

Pep 2-IL-10: synthetic peptide with affinity to the Interleukin-10 receptor, SEQ ID NO: 10, without disulfide bridge (HASSAVIKSSSGGGS)
modulation of the activation of the IFN signaling pathway [1]: able to modulate the activation of the IFN signaling pathway
induction of NFkB expression by peptides alone [2]: not able to induce any response
concentrations that significantly reduced TLR4 pathway activation [3]: 100 μM (P<0.05), 1 μM (P<0.005), 0.5 μM (P<0.05), 0.1 μM (P<0.05), 0.05 μM (P<0.05) and 0.01 μM

Pep 2-TGF-β1: synthetic peptide with affinity to the TGF-β receptor, SEQ ID N 02, with disulfide bridges (HACESPLKRQCGGGS; disulfide 3-11)
degranulation of RBL cells sensitized with sera from treated mice vs Phl p 5 immunized group ([4]; 1 μM, intradermal immunization with Phl p5): significantly lower levels of degranulation
serum IgA levels (ELISA) ([4]; mice sensitized by Phl p5): increased levels of IgA
serum IgE levels (ELISA) ([4]; mice sensitized by Phl p5): suppressed
serum IgG1 levels (ELISA) ([4]; mice sensitized by Phl p5): suppressed
serum IgG2a levels (ELISA) ([4]; mice sensitized by Phl p5, not statistically significant): suppressed
IFN-g secretion in splenocyte supernatant vs untreated mice [5]: significantly lower
IL-2 secretion in splenocyte supernatant vs untreated mice [5]: significantly lower
IL-4 secretion in splenocyte supernatant vs untreated mice [5]: significantly lower
IL-5 secretion in splenocyte supernatant vs untreated mice [5]: significantly lower
IL-10 secretion in splenocyte supernatant vs untreated mice [5]: higher
IL-13 secretion in splenocyte supernatant vs untreated mice [5]: significantly lower
recognition of receptor-bound peptide by anti-TGF-β1 antibody compared to recombinant TGF-β1 [6]: in the same way that the antibody recognized the TGF-β1 recombinant molecule
TH2 polarization (GFP+CD4+ lymphocytes) [7]: suppressed TH2 polarization
IFN-g secreted by splenocytes (ELISPOT) vs untreated mice [8]: significantly lower
IL-4 secreted by splenocytes (ELISPOT) vs untreated mice [8]: significantly lower
IL-10 levels of splenocytes (ELISPOT) vs untreated mice [8]: significantly higher
Treg cells expressing the factor GATA3 (of total T cells) ([9]; mice sensitized with Phl p5 and treated, control 16.1%, sensitized 16.2%): 43.9%
percentage of CD4+CD25+Foxp3+T cells expressing the CTLA4 factor ([9]; mice sensitized with Phl p5 and treated, no sensitization 5.62%, sensitized 9.46%): 12.5%
percentage of CD4+CD25+Foxp3+cells expressing factor KI67 ([9]; vs Phl p5-sensitized mice, not significantly different): enriched

rTGFβ: recombinant TGFβ (rTGFβ1) used as a positive control
IL-10 secretion [10]: increased IL-10 secretion
TNF-α secretion [10]: significantly decreased TNF-α secretion
IL-8 gene expression (luciferase reporter) [11]: decreased IL-8 gene expression

From patent US20220193185A1, “COMBINATION OF SYNTHETIC PEPTIDES WITH AFFINITY TO THE TGF-ß RECEPTOR AND WITH AFFINITY TO THE IL-10 RECEPTOR, PHARMACEUTICAL COMPOSITION AND THEIR USE AS IMMUNOMODULATORS IN THE TREATMENT OF AUTOIMMUNE, INFLAMMATORY OR ALLERGIC DISEASES” (Universidade Federal de Uberlândia, priority 2019, published 2022)
